Experimental data reported in US7939286B2, “Enhancing a luminescent signal” (Targeting Systems, priority 2005, dated 2011).
Values joined by “and” are separate entries in the source; they are usually repeats but may differ in a detail not shown here. Equal entries are not always repeated.

What was measured:
[1] = system: Gaussia luciferase secreted from mammalian cells; test: Bioluminescence of mammalian-secreted Gaussia luciferase in assay buffer (luminometer);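 as to all read-outs here: mammalian cell culture supernatants containing secreted Gaussia luciferase were combined with coelenterazine assay buffer and light emission was read on a luminometer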; conditions: for bioluminescence T = 0 / bioluminescence T = 15 / bioluminescence T = 45: 0.2% detergent final concentration in 0.5×PBS; for bioluminescence T = 0 / bioluminescence T = 15 / bioluminescence T = 45 / stability of the luminescent signal in the presence of different detergents: 1.3 μM coelenterazine; for bioluminescence T = 0: T = 0 minutes; for bioluminescence T = 15: T = 15 minutes; for bioluminescence T = 45: T = 45 minutes; for stability of the luminescent signal in the presence of different detergents: 0.2% and 0.02% detergent, no EDTA, read again after 15 minutes; for Gaussia luciferase (mammalian) bioluminescence t = 0 / Gaussia luciferase (mammalian) bioluminescence t = 10: 1.3 μM substrate in 0.5xPBS; for Gaussia luciferase (mammalian) bioluminescence t = 0: t = 0 minutes; for Gaussia luciferase (mammalian) bioluminescence t = 10: t = 10 minutes; for effect on magnitude (M at t = 1-2 minutes) of bioluminescent signal, Mammalian Gluc / effect on stability (S at time = 7-10 minutes) of bioluminescent signal, Mammalian Gluc: comparison: 1% EDTA to 0%, 0.2% NP40 to 0.025% or 0%, 4 μM coel. to 1.3 μM, 4 μM benzyl coel. to 1.3 μM; for RLU: zero time; for effect on magnitude (M) of bioluminescent signal, Mammalian Gluc: NaCl conc. 0.075M compared to 0.5M
From the text: Reagents used in the examples include: PBS (Amresco, Solon, Ohio), PBS with Ca/Mg/K (Invitrogen, Carlsbad, Calif.), Igepal CA-630 referred to throughout as NP40 (Sigma Aldrich, St. Louis, Mo.), Standard Renilla assay reagent (Promega, Madison, Wis.), coelenterazine and benzyl coelenterazzine (Prolume/NanoLight Technologies, Pinetop, Ariz.), expression vector for Gaussia luciferase in mammals (New England Biolabs, Inc., Ipswich, Mass.), Dulbecco's minimal essential medium (DMEM) (Invitrogen, Carlsbad, Calif.) used for diluting mammalian and bacterial expressed Gaussia luciferase. Measurements of bioluminescence were carried out with a luminometer (Turner TD2020 luminometer, Turner BioSystems, Sunnyvale, Calif.).
An amount of this coelenterazine solution was added to the assay buffer to a final concentration in the range of I-10 μM. 50 μl of the assay buffer was mixed with 20 μl of sample containing luciferase and bioluminescence was measured using a luminometer.
In this example, 20 μl of mammalian Gaussia luciferase samples (cell supernatants) were mixed with 8 μl of the indicated detergents at 2% and 0.2% concentration (final concentration of detergents in assay solution was 0.2% and 0.02%) and 50 μl of the Gaussia luciferase assay reagent (0.5×PBS, no EDTA, 1.3 μM coelenterazine) and read in a Turner TD2020 Luminometer, Turner BioSystems, Sunnyvale, Calif. The samples were read again after 15 minutes to evaluate the stability of the luminescent signal in the presence of different detergents.

Renilla luciferase = target: T1, Renilla luciferase (Renilla reniformis, UniProt P27652); test: Bioluminescence of Renilla luciferase in assay buffer (luminometer); assay type: biochemical; conditions: for effect of 0.2% detergent on Renilla luciferase activity (FIG. 7): 0.2% v/v detergent, T=0 and T=18 minutes; for stability of the luminescent signal in the presence of different detergents: 0.2% and 0.02% detergent; for Renilla luciferase bioluminescence t = 0 / Renilla luciferase bioluminescence t = 20: 1.3 μM substrate in 0.5xPBS, 0.025% NP40; for Renilla luciferase bioluminescence t = 0: t = 0 minutes; for Renilla luciferase bioluminescence t = 20: t = 20 minutes; for effect on magnitude (M at t = 1-2 minutes) of bioluminescent signal, Bacterial Rluc / effect on stability (S at time = 7-10 minutes) of bioluminescent signal, Bacterial Rluc: comparison: 1% EDTA to 0%, 0.2% NP40 to 0.025% or 0%, 4 μM coel. to 1.3 μM, 4 μM benzyl coel. to 1.3 μM
T1 construct: purchased Prolume/NanoLight Technologies, Pinetop, Ariz
T1 sequence (P27652 1-311): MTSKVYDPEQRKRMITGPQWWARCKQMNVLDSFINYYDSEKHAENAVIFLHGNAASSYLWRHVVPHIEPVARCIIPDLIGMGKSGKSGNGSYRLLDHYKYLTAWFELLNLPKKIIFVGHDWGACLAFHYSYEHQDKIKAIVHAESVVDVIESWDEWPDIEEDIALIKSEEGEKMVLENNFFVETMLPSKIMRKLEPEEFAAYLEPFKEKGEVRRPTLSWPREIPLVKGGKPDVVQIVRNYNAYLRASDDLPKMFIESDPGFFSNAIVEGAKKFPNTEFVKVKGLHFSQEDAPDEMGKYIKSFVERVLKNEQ
From the text: Renilla luciferase is commercially available from Prolume/NanoLight Technologies, Pinetop, Ariz. Recombinant bacterial Gaussia luciferase was obtained from Prolume/Nanolight Technologies, Pinetop, Ariz.

[2] = system: purified recombinant bacterial Gaussia luciferase; test: Bioluminescence of recombinant bacterial Gaussia luciferase in assay buffer (luminometer); assay type: biochemical, Gaussia princeps; conditions: for Gaussia luciferase (bacterial) bioluminescence t = 0 / Gaussia luciferase (bacterial) bioluminescence t = 10: 1.3 μM substrate in 0.5xPBS; for Gaussia luciferase (bacterial) bioluminescence t = 0: t = 0 minutes; for Gaussia luciferase (bacterial) bioluminescence t = 10: t = 10 minutes; for effect on magnitude (M at t = 1-2 minutes) of bioluminescent signal, bacterial Gluc / effect on stability (S at time = 7-10 minutes) of bioluminescent signal, bacterial Gluc: comparison: 1% EDTA to 0%, 0.2% NP40 to 0.025% or 0%, 4 μM coel. to 1.3 μM, 4 μM benzyl coel. to 1.3 μM
Procedure: Renilla luciferase is commercially available from Prolume/NanoLight Technologies, Pinetop, Ariz. Recombinant bacterial Gaussia luciferase was obtained from Prolume/Nanolight Technologies, Pinetop, Ariz. […] An amount of powdered bacterial Gaussia luciferase obtained from Nanolight Technologies, Pinetop, Ariz., was dissolved in DMEM and diluted in control assay buffer until a reading could be obtained from a luminometer.

Firefly luciferase = Firefly luciferase (Photinus pyralis, UniProt P08659); test: Summary of effect on bioluminescent signal of firefly luciferase; assay type: biochemical
[3] = 1.3 μM substrate, 0.5×PBS, 1% EDTA, 0.025% NP40, compared with 1.3 μM coelenterazine

Sequence of Firefly luciferase (P08659 whole entry): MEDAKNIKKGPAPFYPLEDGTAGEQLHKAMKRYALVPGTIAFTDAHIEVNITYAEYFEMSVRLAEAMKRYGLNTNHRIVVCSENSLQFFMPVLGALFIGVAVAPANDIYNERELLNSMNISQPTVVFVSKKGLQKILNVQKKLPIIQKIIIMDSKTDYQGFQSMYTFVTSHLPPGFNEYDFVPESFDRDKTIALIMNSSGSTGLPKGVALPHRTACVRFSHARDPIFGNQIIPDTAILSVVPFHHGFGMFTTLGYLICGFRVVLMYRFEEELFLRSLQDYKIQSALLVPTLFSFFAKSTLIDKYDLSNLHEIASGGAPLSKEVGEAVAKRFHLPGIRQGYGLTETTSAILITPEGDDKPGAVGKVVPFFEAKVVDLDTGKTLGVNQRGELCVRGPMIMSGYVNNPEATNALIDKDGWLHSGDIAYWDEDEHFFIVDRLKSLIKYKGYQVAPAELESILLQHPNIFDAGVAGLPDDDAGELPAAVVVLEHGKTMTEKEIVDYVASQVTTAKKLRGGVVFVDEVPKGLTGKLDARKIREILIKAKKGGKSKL

Row | Molecule | bioluminescence T = 0 ([1]; 1% EDTA) | bioluminescence T = 15 ([1]; 1% EDTA) | bioluminescence T = 45 ([1]; 1% EDTA) | effect of 0.2% detergent on Renilla luciferase activity (FIG. 7) (Renilla luciferase) | effect on magnitude (M at t = 1-2 minutes) of bioluminescent signal, bacterial Gluc [2] | effect on magnitude (M at t = 1-2 minutes) of bioluminescent signal, Mammalian Gluc [1] | effect on magnitude (M at t = 1-2 minutes) of bioluminescent signal, Bacterial Rluc (Renilla luciferase) | effect on stability (S at time = 7-10 minutes) of bioluminescent signal, Bacterial Rluc (Renilla luciferase) | effect on stability (S at time = 7-10 minutes) of bioluminescent signal, Mammalian Gluc [1] | further results
1 | CCCCCCCC/C=C\CCCCCCCC(=O)OCCOCC(OCCO)C1OCC(OCCO)C1OCCO (stereo not shown) [Tween80] | 128 RLU | 101 RLU | 58 RLU | stabilizing effect | – | – | – | – | – | –
2 | Triton X-100 | 59 RLU | 80 RLU | 63 RLU | stabilizing effect | – | – | – | – | – | stability of the luminescent signal in the presence of different detergents ([1]; 0.5×PBS): optimum stability; stability of the luminescent signal in the presence of different detergents (Renilla luciferase): optimum stability
3 | CCCCCCCCCCCCOS(=O)(=O)[O-].[Na+] [SDS, sodium dodecyl sulfate] | 0 RLU | 0 RLU | 0 RLU | – | – | – | – | – | – | –
4 | deoxycholate [DOC] | 4 RLU | 2 RLU | 2 RLU | – | – | – | – | – | – | –
5 | Oc1ccc(Cc2nc3c(Cc4ccccc4)nc(-c4ccc(O)cc4)cn3c2O)cc1 [Coel., coelenterazine] | – | – | – | – | M up | M up | M up | S down | – | Gaussia luciferase (bacterial) bioluminescence t = 0 ([2]; 0.025% NP40): 1630 and 1837 and 1903; Gaussia luciferase (bacterial) bioluminescence t = 10 ([2]; 0.025% NP40): 58 and 59 and 60; effect of coelenterazine concentrations greater than 4 μM on luciferase activity (FIG. 4B) ([2]; 1.3-25 μM coelenterazine): no significant increases in luciferase activity; Gaussia luciferase (mammalian) bioluminescence t = 0 ([1]; 0.025% NP40): 594 and 565 and 556; Gaussia luciferase (mammalian) bioluminescence t = 10 ([1]; 0.025% NP40): 31 and 30 and 29; effect of coelenterazine concentrations greater than 4 μM on luciferase activity (FIG. 4A) ([1]; 1.3-25 μM coelenterazine in 0.5×PBS, 1% EDTA, 0.025% NP40, zero time): no significant increase in luciferase activity; Renilla luciferase bioluminescence t = 0 (Renilla luciferase): 2296 and 1790 and 2520; Renilla luciferase bioluminescence t = 20 (Renilla luciferase): 194 and 139 and 211
6 | NP40 | 87 RLU | 112 RLU | 79 RLU | stabilizing effect | M down | M down | M down | S up | S up | effect on stability (S at time = 7-10 minutes) of bioluminescent signal, bacterial Gluc [2]: S up; stability of the luminescent signal in the presence of different detergents ([1]; 0.5×PBS): optimum stability; stability of the luminescent signal in the presence of different detergents (Renilla luciferase): optimum stability; effect on stability (S at time = 7-10 minutes) of bioluminescent signal, Firefly (Firefly luciferase; 0.2% NP40 compared to 0.025% or 0%): S up
7 | O=C(O)CN(CCN(CC(=O)O)CC(=O)O)CC(=O)O [EDTA] | – | – | – | – | M down | M down | M down | S down | S up | effect on magnitude (M at t = 1-2 minutes) of bioluminescent signal, Firefly (Firefly luciferase; 1% EDTA compared to 0%): M down
8 | [Cl-].[Na+] [NaCl, sodium chloride] | – | – | – | – | – | – | – | – | – | RLU ([1]; 0.175M NaCl in adjusted 0.5 × PBS + 1% EDTA + 0.025% NP40 + 1.3 μM coel.): 1322 RLU and 1350 RLU and 1242 RLU; RLU ([1]; 0.275M NaCl in adjusted 0.5 × PBS + 1% EDTA + 0.025% NP40 + 1.3 μM coel.): 1364 RLU and 1252 RLU and 1204 RLU; RLU ([1]; 0.375M NaCl in adjusted 0.5 × PBS + 1% EDTA + 0.025% NP40 + 1.3 μM coel.): 1129 RLU and 1098 RLU and 1246 RLU; RLU ([1]; 0.5M NaCl in adjusted 0.5 × PBS + 1.3 μM coel.): 1212 RLU and 701 RLU; RLU ([1]; 0.575M NaCl in adjusted 0.5 × PBS + 1% EDTA + 0.025% NP40 + 1.3 μM coel.): 1049 RLU and 1035 RLU and 1149 RLU; RLU ([1]; 1M NaCl in adjusted 0.5 × PBS + 1.3 μM coel.): 760 RLU and 750 RLU; effect on magnitude (M) of bioluminescent signal, Mammalian Gluc ([1]; + EDTA): M same + EDTA; effect on magnitude (M) of bioluminescent signal, Mammalian Gluc ([1]; −EDTA-NP40): M down
9 | benzyl coelenterazine [Benzyl Coel.] | – | – | – | – | M down | M down | M up | S up | S down | Gaussia luciferase (bacterial) bioluminescence t = 0 ([2]; 0.025% NP40): 81.75 and 83 and 84; Gaussia luciferase (bacterial) bioluminescence t = 10 ([2]; 0.025% NP40): 7.9 and 8.1; suitability as substrate (FIG. 8) [2, 3]: poor substrate; effect on stability (S at time = 7-10 minutes) of bioluminescent signal, bacterial Gluc [2]: S down; Gaussia luciferase (mammalian) bioluminescence t = 0 ([1]; 0.025% NP40): 34 and 30 and 31; Gaussia luciferase (mammalian) bioluminescence t = 10 ([1]; 0.025% NP40): 3.49 and 3.6 and 3.66; suitability as substrate (FIG. 8) [1, 3]: poor substrate; Renilla luciferase bioluminescence t = 0 (Renilla luciferase): 9036 and 7687 and 7955; Renilla luciferase bioluminescence t = 20 (Renilla luciferase): 2234 and 1944 and 1359; suitability as substrate (FIG. 9) (Renilla luciferase; 1.3 μM substrate, 0.5×PBS, 0.025% NP40, 1% EDTA, compared with 1.3 μM coelenterazine): good substrate
